In US5149865A, “New p-oxibenzoic acid derivatives, process for their preparation and their use as drug” (Klinge Pharma GmbH, priority 1991, dated 1992):

Columns and labels:
[1] = system: total cholesterol (TC) and triglyceride (TG) level in the rat serum; assay: Determination of the hypolipidemic effect on rats (serum total cholesterol and triglycerides after oral administration); format: in vivo, normolipemic male Wistar rats; settings: 100 mg/kg oral, three administrations over 3 days, groups of 10 male Wistar rats
Description: 1) Determination of the hypolipidemic effect on rats
The lipid-reducing effect of the test substances was examined on groups each of 10 normolipemic male Wistar rats weighing 200 to 220 g.
The tests were carried out after a 3-week retraining of the eating habits of the animals. The controlled feeding was carried out daily from 8 a.m. to 10 a.m. The test substances were administered at 11 a.m.
The test compounds were absorbed in an aqueous solution of 0.25% agar and 0.84% sodium chloride and administered orally. After three administrations over a period of 3 days blood was extracted from the animals. Cholesterol and triglycerides were determined in the serum with the aid of the "Cobas-Bio" centrifugal analyzer of Hoffmann-La Roche:
a) Cholesterol determination
CHOD-PAP method, enzymatic color test according to J. Siedel et al. (J. Clin. Chem. Clin. Biochem. 19, 838 (1981))
b) Triglyceride determination
Enzymatic cleavage of the triglycerides with the aid of special lipases with subsequent determination of the liberated glycerol according to T. O. Tiffany et al. (Clin. Chem. 20, 476 (1974))

[2] = system: cholesterol biosynthesis in rat liver homogenate; assay: Determination of the inhibition of cholesterol synthesis in rat liver homogenate (14C acetate incorporation); format: biochemical
Description: 2) Determination of the inhibition of cholesterol synthesis
3 g freshly prepared rat liver were homogenized in 6 ml ice-cooled buffer and centrifuged at 20000 * g for 20 minutes. The supernatant was separated off and used for the following determinations.
10 μl of the methanolic test substance solution was pipetted into a mixture of 110 μl supernatant and 300 μl incubation solution and incubated at 37° C. for 20 minutes. Thereafter, 10 μl of a ^14 C acetate solution was pipetted in and incubated for a further 30 minutes. Thereafter, 500 μl ethanolic KOH solution was added to the mixture, further incubated for 60 minutes at 75° C. and thereafter the reaction stopped by cooling in an ice bath. To enable a yield correction to be made for the subsequent extraction of the ^14 C cholesterol forming, ^3 H cholesterol (≈10^-3) was added by pipetting. In addition, 500 μl of an ethanolic solution of cold cholesterol was added. The cholesterol of the mixture was extracted twice with 1 ml petroleum ether, the extract concentrated by evaporating to dryness and taken up in 0.6 ml of an ethanol acetone mixture (1/1). The dissolved cholesterol was then precipitated by means of 1.4 ml of a digitonin solution (=7 mg). After 15 hours at 0° C. the precipitate was centrifuged off, dissolved with 0.5 ml methanol/glacial acetic acid (33/5) and diluted with two ml methanol. The radioactivity of the resulting cholesterol was then determined in […] scintillation liquid (Dimilume) by means of a scintillation counter.
Buffer: 6.8 g KH2 PO4, 0.6 g MgCl2, 0.37 g EDTA, 1.83 g nicotine amide, 51.35 g saccharose and 0.44 ml mercaptoethanol were dissolved in distilled water and diluted to 500 ml (PH =7.2)
Incubation solution: The following were dissolved, in each case individually:
8.6 mg […] with 1.3 ml buffer
10.2 mg NADP with 1.3 ml buffer
39.6 mg glucose-6-phosphate with 0.65 ml buffer
31.6 μl glucose-6-phosphate dehydrogenase (1000 U/0.9 ml) with 0.285 buffer
These solutions were not mixed until immediately prior to use.
^14 C-acetate: Solution: 250 μCi ^14 C-Na-acetate was dissolved by means of 1 ml distilled water, Solution 2: 512.5 mg Na-acetate was dissolved in 10 ml distilled water.
Before the test, 0.1 ml of solution 1 and 0.4 ml of solution 2 were mixed and then mixed with 2 ml distilled water.
Ethanolic KOH: 10 g were dissolved in 100 ml ethanol.
Method: R. E. Dugan et al. Archives Bioch. Biophys. 152 21, (1972)

Row | SMILES | Percentage change of total cholesterol (TC) level in the rat serum, X ± SD [1] | Percentage change of triglyceride (TG) level in the rat serum, X ± SD [1] | cholesterol biosynthesis in rat liver homogenate, % Control ([2]; 1*10^-5 Mole/l, 10 µM) | cholesterol biosynthesis in rat liver homogenate, % Control ([2]; 1*10^-4 Mole/l, 100 µM) | cholesterol biosynthesis in rat liver homogenate, % Control ([2]; 1*10^-6 Mole/l, 1 µM) | cholesterol biosynthesis in rat liver homogenate, % Control ([2]; 3*10^-4 Mole/l, 300 µM) | cholesterol biosynthesis in rat liver homogenate, % Control ([2]; 3*10^-5 Mole/l, 30 µM) | cholesterol biosynthesis in rat liver homogenate, % Control ([2]; 3*10^-6 Mole/l, 3 µM) | cholesterol biosynthesis in rat liver homogenate, % Control ([2]; 3*10^-7 Mole/l, 0.3 µM)
1 | CCOC(=O)C(C)(C)Oc1ccc(Cl)cc1 [Clofibrate, reference compound] | -14.5 + 12.0 % Change | -29.2 + 19.4 % Change |  |  |  |  |  |  | 
2 | CC(C)(C)c1ccc(C(O)CC(O)COc2ccc(C(=O)O)cc2)cc1 (single isomer, unassigned) [Diastereomer B, 1-(4'-tert.butylphenyl)-4-(4'-carboxyphenoxy)-butanediol-1,3] | -66.9 ± 8.6 % Change | -29.7 ± 15.5 % Change | 42 % Control |  |  |  |  |  | 
3 | CC(C)(C)c1ccc(C(O)CC(O)COc2ccc(C(=O)O)cc2)cc1 (single isomer, unassigned) [Diastereomer A, 1-(4'-tert.butylphenyl)-4-(4'-carboxyphenoxy)-butanediol-1,3] | -39.1 ± 15.5 % Change | -26.4 ± 13.1 % Change | 36 % Control | 9 % Control | 103 % Control | 2 % Control | 14 % Control | 97 % Control | 122 % Control
